# Reference: PubChem BioAssay (NCI)
# Several values for one entry are separate records, joined by “and”; a condition that tells them apart may be missing. Equal entries are not always repeated.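 Where inhibition never reached the appropriate level, the endpoint shown equals the highest concentration tested. Otherwise, values were interpolated linearly from a five-concentration, 48-hour dose response in 96-well plates. GI50 marks 50% less growth. TGI denotes the concentration required for complete inhibition of growth.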 Where a SMILES comes first, the peptide text is derived from it. The star is where a group is joined. Cbz = O=C(OCc1ccccc1)*; Boc = CC(C)(C)OC(=O)*; OSu = O=C1CCC(=O)N1O*; Bn = c1ccc(C*)cc1
# What was measured:
# Assay in all cases: NCI anticancer screen, dose series, 48 h
# [1] = tested on: SK-OV-3 ovarian
# [2] = tested on: K-562 leukemia
# [3] = tested on: U251 CNS
# [4] = tested on: SF-268 CNS
compound,measurement,setting,value
CC(=O)O[C@H]1/C(=C/c2ccncc2)C[C@H]2[C@@H]3CC=C4C[C@@H](N5CCCC5)CC[C@]4(C)[C@H]3CC[C@]12C,TGI,[1],37 µM
same,TGI,[2],12.5 µM
same,TGI,[3],24.8 µM
same,TGI,[4],30.2 µM
O=C(N=Nc1cccc(Cl)c1)NNc1cccc(Cl)c1,TGI,[2],39.6 µM
same,TGI,[3],40 µM
same,TGI,[4],73.6 µM
COCCCNC(=O)C1=C(C)NC(C)=C(C(=O)NCCCOC)C1,TGI,[1],> 100 µM
same,TGI,[2],> 100 µM
same,TGI,[3],> 100 µM
same,TGI,[4],> 100 µM
Cc1ccc(-c2cc(C(F)(F)F)nn2-c2ccc(S(N)(=O)=O)cc2)cc1,TGI,[1],> 57 µM
same,TGI,[2],> 50.6 µM
same,TGI,[3],> 54.5 µM
same,TGI,[4],> 55.8 µM
CCCCCCOc1ccc(C(=O)NO)cc1,TGI,[1],60.3 µM
same,TGI,[2],57.7 µM
same,TGI,[3],28.9 µM
same,TGI,[4],28.7 µM
O=C(O)c1cc(/C=C/c2cc(O)ccc2O)ccc1O,TGI,[2],> 10 µM
same,TGI,[3],> 10 µM
same,TGI,[4],> 10 µM
COc1cc(C2C(C#N)=C(N)OC3=C2CCS(=O)(=O)c2ccc(C)cc23)cc(OC)c1OC (stereo not drawn),TGI,[2],> 100 µM
same,TGI,[3],> 100 µM
same,TGI,[4],> 100 µM
CCOC(=O)c1cnc2n(c1=N)[C@H]1CCCC[C@@H]1N2,TGI,[1],> 100 µM
same,TGI,[2],> 100 µM
same,TGI,[3],> 100 µM
same,TGI,[4],> 100 µM
C=C(C)[C@H]1C=C[C@@H](OC(=O)c2cccnc2)[C@@]23CO[C@@](C)([C@H](OC(=O)c4cccnc4)[C@@]4(OC(C)=O)C[C@H](C)[C@H](OCCC)[C@@H]4[C@H]2OC(C)=O)[C@H]13,TGI,[1],> 15 µM
same,TGI,[2],> 15 µM
same,TGI,[3],> 15 µM
same,TGI,[4],> 15 µM
CN(NC(=O)c1cccs1)C1=NCCCCN1,TGI,[1],> 100 µM
same,TGI,[2],> 100 µM
same,TGI,[3],> 100 µM
same,TGI,[4],> 100 µM
CC(NC(=O)c1ccccc1)NC(=O)C(C)C(=O)Nc1ccccc1 (stereo not drawn),TGI,[1],> 100 µM
same,TGI,[2],> 100 µM
same,TGI,[3],> 100 µM
same,TGI,[4],> 100 µM
CC(SC(=S)N1CCOCC1)C(=O)Nc1nnc(-c2ccccc2)o1 (stereo not drawn),TGI,[1],> 100 µM
same,TGI,[2],> 100 µM
same,TGI,[3],> 100 µM
Cc1nnc2sc(NN)nn12,TGI,[1],> 100 µM
same,TGI,[2],> 100 µM
same,TGI,[3],> 100 µM
same,TGI,[4],> 100 µM
Cc1nc(N/N=C/c2ccccc2Cl)[nH]c(=O)c1CCO,TGI,[1],43.4 µM
same,TGI,[2],> 100 µM
same,TGI,[3],> 100 µM
same,TGI,[4],> 100 µM
COc1ccc(C(CC(=O)C(C)(C)CN2CCCCC2)SCCS(=O)(=O)O)cc1 (stereo not drawn),TGI,[1],> 100 µM
same,TGI,[2],> 100 µM
same,TGI,[3],> 100 µM
NC(=S)N/N=C1\NC(=O)/C(=C/c2ccc3c(c2)OCO3)S1,TGI,[1],> 100 µM
same,TGI,[3],57.7 µM
same,TGI,[4],97.3 µM
C=C[C@@H]1C[C@]2(C(=O)OC)Cc3nc4ccccc4nc3CC(C(=O)OC)=C2O1,TGI,[1],> 100 µM
same,TGI,[3],> 100 µM
same,TGI,[4],> 100 µM
COc1cc(OC)c2nc(C)c3c(c2c1)NCC3,TGI,[1],49.6 µM
same,TGI,[2],27.7 µM
same,TGI,[3],33.4 µM
same,TGI,[4],20 µM
CCN(CC)CCNC(=O)c1cc2cc(NC(=O)c3cc4cc(NC(=O)c5cc6cc(N)ccc6[nH]5)ccc4[nH]3)ccc2[nH]1,TGI,[1],> 100 µM
same,TGI,[2],> 100 µM
same,TGI,[3],> 100 µM
same,TGI,[4],> 100 µM
Cc1nc2c(=O)n(-c3ccccc3)c3ccccc3c2o1,TGI,[1],> 100 µM
same,TGI,[2],> 100 µM
same,TGI,[3],> 100 µM
same,TGI,[4],> 100 µM
O=P1(Oc2ccccc2)N(CCCl)CCN1c1ccccc1 (stereo not drawn),TGI,[1],> 100 µM
same,TGI,[2],> 100 µM
same,TGI,[3],> 100 µM
same,TGI,[4],> 100 µM
Nc1ccn(C2CCC(CO)O2)c(=S)n1 (stereo not drawn),TGI,[1],> 100 µM
same,TGI,[2],> 100 µM
same,TGI,[3],> 100 µM
same,TGI,[4],> 100 µM
CO/N=C(\C(=O)N(C)n1cnnc1)c1csc(NC(c2ccccc2)(c2ccccc2)c2ccccc2)n1,TGI,[1],> 10 µM
same,TGI,[2],> 10 µM
same,TGI,[3],> 10 µM
same,TGI,[4],> 10 µM
O=c1oc2ccccc2c(O)c1/C=N/C(=S)NCCc1ccccc1,TGI,[1],> 63.8 µM
same,TGI,[2],> 100 µM
same,TGI,[3],> 100 µM
same,TGI,[4],> 100 µM
CC1Oc2c(c(=O)oc3ccccc23)[C@@]1(C)CC1C[C@H](C)C(=O)O1 (stereo partly drawn),TGI,[1],> 100 µM
same,TGI,[2],66 µM
same,TGI,[3],> 100 µM
same,TGI,[4],42.8 µM
COc1ccc2[nH]cc([C@@H]3C4CCC(C4)[C@H]3NCc3cccc(CN[C@H]4C5CCC(C5)[C@@H]4c4c[nH]c5ccc(OC)cc45)c3)c2c1,GI50,[1],1.6 µM
same,TGI,[1],2.94 µM and 2.95 µM
same,GI50,[2],0.375 µM
same,GI50,[3],0.168 µM and 0.17 µM
same,TGI,[3],0.329 µM and 0.324 µM
same,GI50,[4],1.23 µM
same,TGI,[4],2.52 µM and 2.93 µM
CC(C)(C)OC(=O)NC(Cc1ccc(OCc2ccccc2)cc1)C(=O)NC(CCCCNC(=O)OCc1ccccc1)C(=O)ON1C(=O)CCC1=O (stereo not drawn) (Boc-Tyr(Bn)-Lys(Cbz)-OSu; configuration not given here),TGI,[2],73.6 µM
same,TGI,[3],32.2 µM
CC(=O)CSc1c(-c2ccccc2)c(=O)n(-c2ccccc2)c(=S)n1-c1ccccc1,TGI,[1],> 100 µM
same,TGI,[2],> 100 µM
same,TGI,[3],> 100 µM
same,TGI,[4],> 100 µM
O=C(c1ccccc1)c1ccc(-n2c3ccccc3c3ccc4c(c32)C(=O)C=CC4=O)cc1,TGI,[1],42.9 µM
same,TGI,[2],> 100 µM
same,TGI,[3],30.4 µM
same,TGI,[4],26.3 µM
Cc1cc(S(=O)(=O)Nc2cc(N)[nH]n2)c(SCc2nc(N)nc(N(C)C)n2)cc1Cl,TGI,[1],> 10 µM
same,TGI,[2],> 10 µM
same,TGI,[3],> 10 µM
same,TGI,[4],> 10 µM
Cc1ccc(Nc2c(C#N)[n+]([O-])c3cc(Cl)ccc3[n+]2[O-])cc1,TGI,[1],> 100 µM
same,TGI,[2],> 100 µM
same,TGI,[3],> 100 µM
same,TGI,[4],> 100 µM
CN(C)P(=O)(Oc1ccc(CC(NC(=O)OCc2ccccc2)C(=O)OCc2ccccc2)cc1)N(C)C (stereo not drawn),TGI,[1],33.2 µM
same,TGI,[2],64.1 µM
same,TGI,[3],28.2 µM
same,TGI,[4],27.8 µM
CNC(=O)N(CCC#N)CCCN(C(=O)NC)c1ccccc1,TGI,[1],> 100 µM
same,TGI,[2],> 100 µM
same,TGI,[3],> 100 µM
CCOC(=O)C(C)NC(=O)C(C)NC(=O)C(C)NC(=O)C(C)NC(=O)C(C)NC(=O)OCc1ccccc1 (stereo not drawn),TGI,[1],> 100 µM
same,TGI,[2],> 100 µM
same,TGI,[3],> 100 µM
same,TGI,[4],> 100 µM
Cc1ncc2c(=O)c3c(oc2n1)c1ccccc1n3Cc1ccccc1,TGI,[2],> 100 µM
same,TGI,[3],> 100 µM
same,TGI,[4],> 100 µM
Cc1oc2c(Cl)cc(O)c(Cl)c2c2cccc1-2,TGI,[1],> 100 µM
same,TGI,[2],47.4 µM
same,TGI,[3],64.9 µM
same,TGI,[4],> 100 µM
O=c1[nH]nc(Cc2ccccc2)n1/N=C\c1ccccc1,TGI,[2],> 100 µM
same,TGI,[3],> 100 µM
